Molecular target: NAD-dependent malic enzyme (Escherichia coli K-12, maeA) (UniProt P26616)
Test: Inhibition of Escherichia coli K-12 recombinant NAD-dependent malic enzyme by Dixon plot

NAD-dependent malic enzyme (Escherichia coli K-12, maeA), sequence (P26616 whole entry, looked up): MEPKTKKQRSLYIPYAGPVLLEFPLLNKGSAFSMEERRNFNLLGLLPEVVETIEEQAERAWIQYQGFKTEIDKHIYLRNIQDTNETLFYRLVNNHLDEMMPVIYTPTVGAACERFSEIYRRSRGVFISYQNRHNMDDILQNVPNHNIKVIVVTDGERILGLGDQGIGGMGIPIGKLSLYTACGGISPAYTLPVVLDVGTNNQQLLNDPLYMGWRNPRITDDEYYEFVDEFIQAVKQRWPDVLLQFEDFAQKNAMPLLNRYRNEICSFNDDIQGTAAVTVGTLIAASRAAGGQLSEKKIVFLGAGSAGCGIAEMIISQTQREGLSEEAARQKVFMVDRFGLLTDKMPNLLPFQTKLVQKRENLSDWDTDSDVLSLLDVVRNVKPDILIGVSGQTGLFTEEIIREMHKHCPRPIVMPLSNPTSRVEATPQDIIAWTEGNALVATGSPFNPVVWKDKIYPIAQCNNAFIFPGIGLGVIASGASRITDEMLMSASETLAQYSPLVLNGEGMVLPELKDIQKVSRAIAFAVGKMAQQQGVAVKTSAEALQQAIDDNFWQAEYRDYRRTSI

In the case of `COc1ccc(-c2cn([C@@H]3O[C@H](COP(=O)(O)O)[C@@H](O)[C@H]3O)nn2)cc1` [5-O-phosphate-1-N-(4'-(4''-methoxyhenyl))-[1',2',3']-triazol-beta-D-ribofuranoside], the Ki is reported as 57 µM.
